Test results from patent US6855710B2, “Substituted indolines with an inhibitory effect on various kinases and complexes of CDKs” (Boehringer Ingelheim Pharma KG, priority 1998, dated 2005).

Compound	melting point
O=C1Nc2ccccc2/C1=C(/Nc1ccccc1C(=O)O)c1ccccc1 [Example 8, (Z)-3-[1-(2-carboxy-phenylamino)-1-phenyl-methylidene]-2-indolinone]	227 to 230 °C
CN(C)C(=N)c1cccc(N/C(=C2\C(=O)Nc3ccccc32)c2ccccc2)c1 [Example 66, (Z)-3-{1-[3-(N,N-dimethylcarbamimidoyl)-phenylamino)-1-phenyl-methylidene}-2-indolinone]	238 to 242 °C
CS(=O)(=O)N(CC(=O)O)c1cccc(N/C(=C2\C(=O)Nc3ccccc32)c2ccccc2)c1 [Example 318, (Z)-3-{1-[3-(N-carboxymethyl-N-methylsulphonyl-amino)-phenylamino]-1-phenyl-methylidene}-2-indolinone]	270 °C (dec.)
CS(=O)(=O)N(CC(=O)O)c1ccc(N/C(=C2\C(=O)Nc3ccc([N+](=O)[O-])cc32)c2ccccc2)cc1 [Example 199, (Z)-3-{1-[4-(N-carboxymethyl-N-methylsulphonyl-amino)-phenyl-amino]-1-phenyl-methylidene}-5-nitro-2-indolinone]	180 to 183 °C
CN(C)Cc1cccc(N/C(=C2\C(=O)Nc3ccc([N+](=O)[O-])cc32)c2ccccc2)c1 [Example 107, (Z)-3-[1-(3-dimethylaminomethyl-phenylamino)-1-phenyl-methylidene]-5-nitro-2-indolinone]	214 to 217 °C
CN(c1ccc(N/C(=C2\C(=O)Nc3ccccc32)c2ccccc2)cc1)S(C)(=O)=O [Example 186, (Z)-3-{1-[4-(N-methyl-N-methylsulphonyl-amino)-phenylamino]-1-phenyl-methylidene}-2-indolinone]	269 °C
CN(C)C(=O)CN(c1cccc(N/C(=C2\C(=O)Nc3ccccc32)c2ccccc2)c1)S(C)(=O)=O [Example 321, (Z)-3-{1-[3-(N-dimethylaminocarbonylmethyl-N-methylsulphonyl-amino)-phenylamino]-1-phenyl-methylidene}-2-indolinone]	213 to 216 °C
CN(C(=O)CN1CCOCC1)c1ccc(N/C(=C2\C(=O)Nc3ccc([N+](=O)[O-])cc32)c2ccccc2)cc1 [Example 102, (Z)-3-{1-[4-(N-morpholinomethylcarbonyl-N-methyl-amino)-phenylamino]-1-phenyl-methylidene}-5-nitro-2-indolinone]	293 to 295 °C
C[C@H](NC(=O)OC(C)(C)C)c1ccc(N/C(=C2\C(=O)Nc3ccc([N+](=O)[O-])cc32)c2ccccc2)cc1 [Example 123, (Z,S)-3-{1-[4-(1-tert.butoxycarbonylamino-ethyl)-phenylamino]-1-phenyl-methylidene}-5-nitro-2-indolinone]	247 to 249 °C (dec.)
Cc1ccc(/C(Nc2ccc(CN(C)C)cc2)=C2/C(=O)Nc3ccc([N+](=O)[O-])cc32)cc1 [Example 212, (Z)-3-[1-(4-dimethylaminomethyl-phenylamino)-1-(p-tolyl)-methylidene]-5-nitro-2-indolinone]	274 to 276 °C
CC(=O)N(CC(=O)O)c1ccc(N/C(=C2\C(=O)Nc3ccccc32)c2ccccc2)cc1 [Example 353, (Z)-3-{1-[4-(N-carboxymethyl-N-acetyl-amino)-phenylamino]-1-phenyl-methylidene}-2-indolinone]	276 °C (dec.)
COCC(=O)NCc1ccc(N/C(=C2\C(=O)Nc3ccccc32)c2ccccc2)cc1 [Example 76, (Z)-3-[1-(4-methoxymethylcarbonylaminomethyl-phenylamino)-1-phenyl-methylidene]-2-indolinone]	178 to 180 °C
O=C1Nc2ccc(Br)cc2/C1=C(/Nc1ccc(CN2CCCCC2)cc1)c1ccccc1 [Example 450, (Z)-3-[1-(4-piperidinomethyl-phenylamino)-1-phenyl-methylidene]-5-bromo-2-indolinone]	170 °C
CCOC(=O)CNC(=O)c1cccc(N/C(=C2\C(=O)Nc3ccccc32)c2ccccc2)c1 [Example 23, (Z)-3-[1-(3-ethoxycarbonylmethylaminocarbonyl-phenylamino)-1-phenyl-methylidene]-2-indolinone]	233 to 235 °C
CC(=O)NCc1ccc(N/C(=C2\C(=O)Nc3ccccc32)c2ccccc2)cc1 [Example 56, (Z)-3-[1-(4-acetylaminomethyl-phenylamino)-1-phenyl-methylidene]-2-indolinone]	207 to 210 °C
O=CNc1ccc(N/C(=C2\C(=O)Nc3ccccc32)c2ccccc2)cc1 [Example 29, (Z)-3-[1-(4-formylamino-phenylamino)-1-phenyl-methylidene]-2-indolinone]	268 to 269 °C
CC(C)(C)OC(=O)NC(Cc1ccc(N/C(=C2\C(=O)Nc3ccc([N+](=O)[O-])cc32)c2ccccc2)cc1)C(=O)O (stereo not shown) [Example 226, (Z)-3-{1-[4-(2-tert.butoxycarbonylamino-2-carboxy-ethyl)-phenylamino]-1-phenyl-methylidene}-5-nitro-2-indolinone]	235 °C (dec.)

Compound	melting point
O=C1Nc2ccc([N+](=O)[O-])cc2/C1=C(/Nc1ccc(CN2CCOCC2)cc1)c1ccccc1 [Example 118, (Z)-3-[1-(4-morpholinomethyl-phenylamino)-1-phenyl-methylidene]-5-nitro-2-indolinone]	273 °C
CS(=O)(=O)N(CCN1CCOCC1)c1ccc(N/C(=C2\C(=O)Nc3ccc([N+](=O)[O-])cc32)c2ccccc2)cc1 [Example 203, (Z)-3-{1-[4-(N-(2-morpholinoethyl)-N-methylsulphonyl-amino)-phenylamino]-1-phenyl-methylidene}-5-nitro-2-indolinone]	255 to 257 °C
CC(C)S(=O)(=O)N(CC(=O)N(C)C)c1ccc(N/C(=C2\C(=O)Nc3ccccc32)c2ccccc2)cc1 [Example 304, (Z)-3-{1-[4-(N-(dimethylaminocarbonylmethyl)-N-isopropylsulphonyl-amino)-phenylamino]-1-phenyl-methylidene}-2-indolinone]	146 to 148 °C
O=C(O)Cc1cccc(N/C(=C2\C(=O)Nc3ccccc32)c2ccccc2)c1 [Example 12, (Z)-3-[1-(3-carboxymethyl-phenylamino)-1-phenyl-methylidene]-2-indolinone]	268 to 270 °C
CN(C)CCN(c1ccc(N/C(=C2\C(=O)Nc3ccc([N+](=O)[O-])cc32)c2ccccc2)cc1)S(C)(=O)=O [Example 202, (Z)-3-{1-[4-(N-(2-dimethylamino-ethyl)-N-methylsulphonyl-amino)-phenylamino]-1-phenyl-methylidene}-5-nitro-2-indolinone]	276 to 277 °C
O=C1Nc2ccccc2/C1=C(/Nc1ccccc1)c1ccccc1 [Example 1, (Z)-3-(1-Anilino-1-phenyl-methylidene)-2-indolinone]	325 °C
Cl.Cl.O=C1Nc2ccc([N+](=O)[O-])cc2/C1=C(/Nc1ccc(CN2CCNCC2)cc1)c1ccccc1	> 370 °C
CN(CC(=O)O)C(=O)c1cccc(N/C(=C2\C(=O)Nc3ccccc32)c2ccccc2)c1 [Example 26, (Z)-3-{1-[3-(N-carboxymethyl-N-methyl-aminocarbonyl)-phenyl-amino]-1-phenyl-methylidene}-2-indolinone]	218 to 220 °C
CC(=O)NCc1ccc(/C(Nc2ccc(CNC(=O)OC(C)(C)C)cc2)=C2/C(=O)Nc3ccc([N+](=O)[O-])cc32)cc1 [Example 150, (Z)-3-[1-(4-tert.butoxycarbonylaminomethyl-phenylamino)-1-(4-acetylaminomethyl-phenyl)-methylidene]-5-nitro-2-indolinone]	234 °C (dec.)
CCOC(=O)CN(C(=O)CC)c1ccc(N/C(=C2\C(=O)Nc3ccccc32)c2ccccc2)cc1 [Example 356, (Z)-3-{1-[4-(N-ethoxycarbonylmethyl-N-propionyl-amino)-phenylamino]-1-phenyl-methylidene}-2-indolinone]	229 to 232 °C
CC(=O)NCc1ccc(/C(Nc2ccc(CCNC(=O)OC(C)(C)C)cc2)=C2/C(=O)Nc3ccc([N+](=O)[O-])cc32)cc1 [Example 157, (Z)-3-{1-[4-(2-tert.butoxycarbonylamino-ethyl)-phenylamino]-1-(4-acetylaminomethyl-phenyl)-methylidene}-5-nitro-2-indolinone]	94 °C (dec.)
O=C1Nc2ccc([N+](=O)[O-])cc2/C1=C(/Nc1ccc(Br)cc1)c1ccc(Cn2ccnc2)cc1 [Example 438, (Z)-3-{1-[4-Bromophenylamino]-1-[4-(imidazol-1-ylmethyl)-phenyl]-methylidene}-5-nitro-2-indolinone]	260 to 265 °C
CCOC(=O)CN(C)C(=O)c1cccc(N/C(=C2\C(=O)Nc3ccccc32)c2ccccc2)c1 [Example 25, (Z)-3-{1-[3-(N-ethoxycarbonylmethyl-N-methyl-aminocarbonyl)-phenylamino]-1-phenyl-methylidene}-2-indolinone]	148 to 150 °C
COCCN(C)CC(=O)N(C)c1ccc(N/C(=C2\C(=O)Nc3ccccc32)c2ccccc2)cc1 [Example 372, (Z)-3-{1-[4-(N—(N-(2-methoxyethyl)-N-methyl-aminomethylcarbonyl)-N-methyl-amino)-phenylamino]-1-phenyl-methylidene}-2-indolinone]	197 to 199 °C
CC(=O)NCc1ccc(/C(Nc2ccc(N(CCN(C)C)S(C)(=O)=O)cc2)=C2/C(=O)Nc3ccccc32)cc1 [Example 427, (Z)-3-{1-[4-(N-(2-dimethylaminoethyl)-N-methylsulphonyl-amino)-phenylamino]-1-(4-acetylaminomethyl-phenyl)-methylidene}-2-indolinone]	225 to 227 °C
O=C1Nc2ccc([N+](=O)[O-])cc2/C1=C(/Nc1ccc(CCN2CCCCC2)cc1)c1ccccc1 [Example 132, (Z)-3-{1-[4-(2-piperidinoethyl)-phenylamino]-1-phenyl-methylidene}-5-nitro-2-indolinone]	236 to 237 °C
O=C1Nc2ccc([N+](=O)[O-])cc2/C1=C(/Nc1ccc(CNC2CCCC2)cc1)c1ccccc1 [Example 276, (Z)-3-{1-[4-(cyclopentylaminomethyl)-phenylamino]-1-phenyl-methylidene}-5-nitro-2-indolinone]	231 °C
